Assay results reported in patent publication US20090105234A1, “EP4 Receptor Agonist, Compositions and Methods Thereof” (priority 2005, published 2009).

How the values were obtained:
[1] = tested on: TRAB-11 cells; assay: Intracellular cAMP in osteoblastic cells; type: cell-based, rat
Experimental: (§1) RCT-1 and RCT-3 are clonal cell lines immortalized by SV40 large T antigen from cells released from fetal rat calvair by a cmbination collagenase/hyaluronidase digestion. RCT-1 cells, derived from cells released during the first 10 minutes of digestion (fraction I), are cultured in RPMI 1640 medium (BRL) with 10% fetal bovine serum and 0.4 mg/ml G418 (BRL). These cells differentiate and express osteoblastic features upon retinoic acid treatment. RCT-3 cells, immortalized from osteoblast-enriched fraction III cells, are cultured in F-12 medium (BRL) with 5% Fetal bovine serum and 0.4 mg/ml G418. TRAB-11 cells are also immortalized by SV40 large T antigen from adult rat tibia and are cultured in RPMI 1640 medium with 10% FBS and 0.4 mg/ml G418. ROS 17/2.8 rat osteosarcoma cells are cultured in F-12 containing 5% FBS. Osteoblast-enriched (fraction III) primary fetal rat calvaria cells are obtained by collagenase/hyaluronidase digestion of calvariae of 19 day-old rat fetuses. See Rodan et al., Growth stimulation of rat calvaria osieoblastic cells by acidic FGF, Endocrinology, 121, 1919-1923 (1987), which is incorporated by reference herein in its entirety. Cells are released during 30-50 minutes digestion (fraction III) and are cultured in F-12 medium containing 5% FBS. […]

[2] = tested on: RCT-3 cells; assay: Intracellular cAMP in osteoblastic cells; type: cell-based, rat
Experimental: as §1

[3] = tested on: EP4 mRNA in RP-1 periosteal cells; assay: EP4 mRNA levels (Northern blot) in RP-1 periosteal cells; type: cell-based, rat; settings: 10^−6 M
Experimental: (§2) RP-1 periosteal cells are spontaneously immortalized from primary cultures of periosteal cells from tibae of 4-week old Sprague-Dawley rats and are cultured in DMEM (BRL, Gaithersburg, Md.) with 10% fetal bovine serum (JRH Biosciences, Lenexa, Kans.).
(§3) Total RNA is extracted from the tibial metaphysis or diaphysis and calvaria using a guanidinium isothiocyanate-phenol-chloroform method after pulverizing frozen bone samples by a tissue homogenizer. See P. Chomczynski et al., Single-step method of RNA isolation by acid guanidium thiocyanate-phenol-chloroform extraction., Analyt Biochem, 162, 156-159 (1987), which is incorporated by reference herein in its entirety. RNA samples ([…]) are separated on 0.9% agarose/formaldehyde gels and transferred onto nylon membranes (Boehringer Mannheim, Germany). Membranes are prehybridized in Hybrisol I (Oncor, Gaithersburg, Md.) and 0.5 mg/ml sonicated salmon sperm DNA (Boehringer) at 42° C. for 3 hours and are hybridized at 42° C. with rat EP2 and mouse EP4 cDNA probes labeled with [^32P]-dCTP (Amersham, Buckinghamshire, UK) by random priming using the rediprime kit (Amersham). After hybridization, membranes are washed 4 times in 2×SSC+0.1% SDS at room temperature for a total of 1 hour and once with 0.2×SSC+0.1% SDS at 55° C. for 1 hour and then exposed to Kodak XAR 2 film at −70° C. using intensifying screens. […]

[4] = tested on: ROS 17/2.8 cells; assay: Intracellular cAMP in osteoblastic cells; type: cell-based; settings: ROS 17/2.8 rat osteosarcoma cells
Experimental: as §1

[5] = tested on: EP2 mRNA in RP-1 cells; assay: EP2 mRNA expression (Northern blot) in RP-1 cells; type: cell-based, rat
Experimental: as §2, §3

[6] = tested on: EP4 mRNA in bone marrow cells; assay: In situ hybridization, localization of EP4 expression in bone; type: in vivo; settings: single anabolic dose, versus vehicle-injected rats
Experimental: (§4) For mRNA localization experiments, 5-week old Sprague-Dawley rats (Charles River) are euthanized by CO2, their tibiae and calvariae are excised, cleaned of soft tissues and frozen immediately in liquid nitrogen. For EP4 regulation experiments, 6-week old rats are given a single injection of either vehicle (7% ethanol in sterile water) or an anabolic dose of PGE2 (Cayman Chemical, Ann Arbor, Mich.), 3-6 mg/kg in the same vehicle) intraperitoneally. Animals are euthanized at several time points post-injection and their tibiae and calvariae, as well as samples from lung and kidney tissues are frozen in liquid nitrogen.
Frozen tibiae are sectioned coronally at […] thickness and sections are mounted on charged slides (Probe On Plus, Fisher Scientific, Springfield, N.J.) and are kept at −70° C. until hybridization. cRNA probes are labeled with ^35S-UTPgS (ICN, Costa Mesa, Calif.) using a Riboprobe II kit (Promega Madison, Wis.). Hybridization is performed overnight at 50° C. See M. Weinreb et al., Different pattern of alkaline phosphalase, osteopontin and osteocalcin expression in developing rat bone visualized by in-situ hybridization, J. Bone Miner Res., 5, 83′-842 (1990) and D. Shinar et al., Expression of alphav and beta3 integrin subunits in rat osteoclasts in situ, J. Bone Miner. Res., 8, 403-414 (1993), which are both incorporated by reference herein in their entirety. […]

[7] = tested on: EP2 mRNA in bone tissue; assay: EP2 mRNA in vivo in bone tissue after systemic PGE2; settings: rats, systemic administration
Experimental: as §4
Total RNA is extracted from the tibial metaphysis or diaphysis and calvaria using a guanidinium isothiocyanate-phenol-chloroform method after pulverizing frozen bone samples by a tissue homogenizer. See P. Chomczynski et al., Single-step method of RNA isolation by acid guanidium thiocyanate-phenol-chloroform extraction., Analyt Biochem, 162, 156-159 (1987), which is incorporated by reference herein in its entirety. RNA samples ([…]) are separated on 0.9% agarose/formaldehyde gels and transferred onto nylon membranes (Boehringer Mannheim, Germany). […]

[8] = tested on: EP4 mRNA in RCT-3 cells; assay: EP4 mRNA levels (Northern blot) in RCT-3 cells; type: cell-based, rat
Experimental: as §1

[9] = tested on: EP4 mRNA in bone tissue; assay: EP4 mRNA levels in vivo in bone tissue after systemic PGE2; settings: five-week-old male rats, injected 3-6 mg/Kg
Source text: For mRNA localization experiments, 5-week old Sprague-Dawley rats (Charles River) are euthanized by CO2, their tibiae and calvariae are excised, cleaned of soft tissues and frozen immediately in liquid nitrogen. […] Animals are euthanized at several time points post-injection and their tibiae and calvariae, as well as samples from lung and kidney tissues are frozen in liquid nitrogen.
as §3, with “(Amersham).” for “(Amersham). After hybridization, membranes are washed 4 times in 2×SSC+0.1% SDS at room temperature for a total of 1 hour and once with 0.2×SSC+0.1% SDS at 55° C. for 1 hour and then exposed to Kodak XAR 2 film at −70° C. using intensifying screens.”

[10] = Vehicle panel-controlled 5 day ocular tolerability study (topical, bilateral, b.i.d); type: in vivo, Dutch-Belted rabbits; settings: 5 days, 2.2 μM (25 μL) ophthalmic solution
[11] = Ocular tolerability in animal species compared to compounds of WO 2004/085430; type: in vivo; settings: compared to compounds disclosed in WO 2004/085430 (i.e., Example 2)
[12] = Ocular adverse effects (conjuctival hyperemia, partial eye closure, etc.); type: in vivo, Cynomolgus Monkeys; settings: versus Example 2 of WO 2004/085430
[13] = Eye closure after ocular dosing; type: in vivo, New Zealand White rabbits; settings: versus Example 2 of WO 2004/085430

Structure (SMILES)	effect on intracellular cAMP [1]	effect on intracellular cAMP [2]	effect on EP4 mRNA levels [3]	time of peak EP4 mRNA levels after treatment [3] [h]	effect on intracellular cAMP [4]	EP2 mRNA expression before or after treatment [5]	expression of EP4 in bone marrow cells [6]	induction of EP2 mRNA in bone tissue [7]	effect on EP4 mRNA levels [8]	effect on EP4 mRNA levels in the tibial diaphysis [9]	time of peak EP4 mRNA levels in the tibial diaphysis after injection [9] [h]	drug treatment related findings [10]	ocular tolerability [11]	improvement in ocular adverse effects (conjuctival hyperemia, partial eye closure, etc.) [12]	improvement in eye closure [13] [fold]
CCCCC[C@H](O)/C=C/[C@H]1[C@H](O)CC(=O)[C@@H]1C/C=C\CCCC(=O)O [PGE2]	markedly induced	markedly induced	rapidly increases EP4 mRNA levels	2	no effect	not expressed	increased the expression of EP4	does not induce EP2 mRNA	no effect on EP4 mRNA levels	rapidly increased EP4 mRNA levels	2				
CC(C)OC(=O)c1ccc(CCCN2C(=O)OCC[C@@H]2/C=C/[C@@H](O)C(F)(F)c2cccc(Br)c2)s1 [Example 1, Isopropyl 5-(3-{(4R)-4-[(1E,3R)-4-(3-bromophenyl)-4,4-difluoro-3-hydroxybut-1-en-1-yl]-2-oxo-1,3-oxazinan-3-yl}propyl)thiophene-2-carboxylate]												no drug treatment related findings	improved ocular tolerability	3-5 fold	5
